Measurements taken from patent US11369588B2, “NADPH production by the 10-formyl-THF pathway, and its use in the diagnosis and treatment of disease” (The Trustees of Princeton University, priority 2014, dated 2022).
“And” between values parts separate entries of the source, which are not always exact repeats. Equal entries are not always repeated.

How the values were obtained:
[1] = test system: HEK293T cells; conditions: non-growing HEK293T cells, 150 μM H2O2, 5 h
Procedure: Total cytosolic NADPH turnover was measured based on the absolute oxPPP flux divided by the fractional contribution of the oxPPP to total NADPH as measured using NADP2H formation from 1-^2H-glucose. Mean±SD, N=3.

[2] = test system: methylene-THF oxidation pathway; test: Folate pathway tracing: NADPH labeling from 2,3,3-2H-serine in 3T3-L1 cells; format: cell-based
[3] = test system: HEK293T cells; conditions: 3 days, DMEM no serine, 5 mM glycine instead of 0.4 mM
[4] = test system: oxPPP; test: oxPPP tracing: NADPH labeling from 1-2H-glucose in 3T3-L1 cells; format: cell-based; conditions: proliferating 3T3-L1 cells, tracer fed 2 h
Procedure: In one embodiment, PPP activity is measured by incubating cultured adipocytes (e.g., 3T3-L1 adipocytes) in the presence of 1-^14C-glucose versus 6-^14C-glucose and detecting the released ^14CO2. The oxPPP releases C1 of glucose as CO2. The 6-^14C-glucose corrects for release of C1 by other pathways, because C1 and C6 are rendered identical by the triose phosphate isomerase step in glycolysis. After determining the oxPPP flux, the cells are provided with 1-^2H-glucose, which selectively labels NADPH in the first step (G6PDH) of the PPP.
Two complimentary methods were used to measure oxPPP activity in the proliferating and differentiating 3T3-L1 cells. First, cells were cultured in the presence of 1-^14C-Glucose versus 6-^14C-Glucose and the release of ^14CO2 was detected. The oxPPP releases C1 of glucose as CO2. The 6-^14C-Glucose corrects for release of C1 by other pathways, because C1 and C6 are rendered identical by the triose phosphate isomerase step in glycolysis. […] Next, cells were fed 1-^2H-Glucose, which selectively labels NADPH in the first step (G6PDH) of the oxPPP, and can therefore be used to determine the fraction of NADPH made by the oxPPP. In the proliferating cells, M+1 NADPH exceeded M+1 NADP+ by ˜16% (FIG. 18). […] In contrast, in the differentiating adipocytes, there was much less NADPH labeling from 1-^2H-Glucose. […]

[5] = test system: malic enzyme; test: Tracing hydride flux through malic enzyme with 2H tracers in 3T3-L1 cells (LC-MS labeling of malate, aspartate, NADPH, fatty acids); format: cell-based; conditions: for fraction of M+1 aspartate / fraction of M+1 malate / fraction of M+2 malate: differentiating 3T3-L1 adipocytes day 5; for fatty acid 2H-labeling, M+0 fraction / fatty acid 2H-labeling, M+1 fraction / fatty acid 2H-labeling, M+2 fraction: tracer 5 days
From the text: To more directly establish the contribution of malic enzyme to NADPH production, cells are provided with the ^2H-labeled succinate analogue, 2,2,3,3-^2H-dimethyl-succinate, and deuterium labeling is followed through the C2 hydride of malate to NADPH and finally to newly synthesized fatty acid molecules (FIGS. 15A-15F). Although any suitable labeled molecule may be used to trace hydride flux from malate to NADPH and subsequently into fat, it is preferred to use 2,2,3,3-^2H-dimethyl-succinate for the above purpose.
NADPH labeling at its redox active hydride was analyzed by comparing the M+1 fraction of NADPH to NADP+.
Converting the NADPH labeling fraction from 2,2,3,3-^2H-dimethyl-succinate into the fractional NADPH contribution of malic enzyme requires two important corrections: (i) fractional ^2H-labeling of malate's C2 hydride and (ii) the malic enzyme deuterium kinetic isotope effect (approximately 1.5).
2,2,3,3-^2H-dimethyl succinate was used to track hydride transfer mediated by malic enzyme. Tracer addition increased the cellular concentration of succinate without markedly perturbing other metabolite concentrations or fluxes. Labeling from 2,2,3,3-^2H-dimethyl succinate was followed through the C2 hydride of malate to NADPH and finally to newly synthesized fatty acids. NADPH labeling at its redox active hydride was analyzed by comparing the M+1 fraction of NADPH to NADP^+. […] Adjustment for the kinetic isotope effect in hydride transfer from NADPH to fat (˜1.1) (Yuan, Z. et al. (1984) “Elementary Steps in the Reaction Mechanism of Chicken Liver Fatty Acid Synthase,” 259:6748-6751) yields an associated cytosolic NADPH labeling fraction of 3.2%±0.5%, in excellent agreement with the directly measured whole cell NADPH labeling.
The NADPH labeling fraction from [2,2,3,3-^2H] dimethyl succinate was converted into the fractional NADPH contribution of malic enzyme is accordance with Equation 15. Forward flux from 2,2,3,3-^2H-succinate results in 2,3-^2H-malate, i.e., M+2 malate. The observed fraction of M+2 malate was, however, only 1.5%. The larger peak was M+1 malate (10.9%). Reverse flux through malate dehydrogenase can produce M+1 malate labeled at the C3 hydride (3-^2H-malate). As fumarate is symmetric, fumarase will interconvert 3-^2H-malate and 2-^2H-malate. Because malic enzyme will produce NADPH selectively from malate labeled at the C2 hydride, the relative abundance of 2-^2H-malate versus 3-^2H-malate was determined. 3-^2H-malate (and also 2,3-^2H-malate) yields M+1 oxaloacetate and aspartate, whereas 2-^2H-malate yields unlabeled oxaloacetate and aspartate. […] Summing 2-^2H-malate and 2,3-^2H-malate, the fraction of malate that is capable of making NADPH was 7.9%. Thus, while 2,2,3,3-^2H-dimethyl succinate labeled only approximately 3.2% of NADPH, after adjusting for the extent of malate labeling and the malic enzyme kinetic isotope effect, the fraction of NADPH generated via malic enzyme was calculated to be is approximately 60%.
4-^2H-glucose was therefore employed as a metabolic tracer. Cells were grown in 6 cm tissue culture dishes, and the labeled medium was replaced every day, and additionally 2 hours before extracting metabolites. Because labeling of glycolytic and oxPPP intermediates and the redox active hydride of NADPH reaches steady state over approximately 5 min, where for TCA intermediates this can take several hours, to ensure steady-state labeling, oxPPP tracing with 1-^2H-glucose and 1,2-^13C-glucose is performed for a minimum of 30 min and other labeling experiments for a minimum of 12 h. Metabolism is then quenched and metabolites extracted by aspirating media and immediately adding 2 mL −80° C. 80:20 methanol:water. After 20 min. of incubation on dry ice, the resulting mixture was scraped, collected into a centrifuge tube, and centrifuged at 10000 g for 5 min. Insoluble pellets were re-extracted with 1 mL −80° C. 80:20 methanol: water on dry ice. […]

Row | SMILES | fraction of M+1 aspartate [5] | fraction of M+1 malate [5] | fraction of M+2 malate [5] | fatty acid 2H-labeling, M+0 fraction ([5]; differentiating 3T3-L1 cells) | fatty acid 2H-labeling, M+1 fraction ([5]; differentiating 3T3-L1 cells) [%] | fatty acid 2H-labeling, M+2 fraction ([5]; differentiating 3T3-L1 cells) [%] | fatty acid 2H-labeling, M+0 fraction ([5]; proliferating 3T3-L1 cells) [%] | further results
1 | OO [hydrogen peroxide] | – | – | – | – | – | – | – | total cytosolic NADPH production rate [1]: 5.5 nmol/µL/h
2 | [2H]C([2H])(O)[C@]([2H])(N)C(=O)O [2,3,3-^2H-serine] | – | – | – | – | – | – | – | labeling of NADPH at its redox active hydride [2]: approximately 3%
3 | NCC(=O)O [glycine] | – | – | – | – | – | – | – | cell growth (relative cell number) [3]: inhibit cell growth; relative NADPH/NADP+ ratio [3]: decrease the NADPH/NADP+ ratio
4 | [2H]C1(O)OC(CO)C(O)C(O)C1O (stereo not drawn) [1-^2H-Glucose] | – | – | – | – | – | – | – | excess of M+1 NADPH over M+1 NADP+ [4]: ~16%
5 | [2H]C([2H])(C(=O)OC)C([2H])([2H])C(=O)OC [2,2,3,3-^2H-dimethyl succinate] | 6.0% | 10.9% | 1.5% | approximately 60% | ~30 | ~10 | 100 | fraction of 2-2H-malate ([5]; M+1 plus M+2 malate minus M+1 aspartate, differentiating 3T3-L1 adipocytes): approximately 6.4%; fraction of NADPH generated via malic enzyme ([5]; after adjusting for malate labeling and malic enzyme kinetic isotope effect, normoxic differentiating 3T3-L1 adipocytes): approximately 60%; fraction of malate capable of making NADP2H (2-2H-malate plus 2,3-2H-malate) ([5]; differentiating 3T3-L1 adipocytes): 7.9%; average hydride 2H-labeling fraction of a set of abundant fatty acids ([5]; differentiating 3T3-L1 adipocytes, newly synthesized fatty acids only): 2.87%±0.31%; total adipocyte (whole cell) NADPH labeled at redox active hydride ([5]; differentiating (day 5) 3T3-L1 adipocytes, tracer fed 24 h): 3.4%±0.3%
6 | [2H][C@@]1(O)[C@@H](CO)OC(O)[C@H](O)[C@@H]1O (stereo partly drawn) [4-^2H-glucose] | 4.3% and 4.3 ± 0.1% | 12.3% and 12.3 ± 0.1% | 0.3% and 0.3 ± 0.0% | approximately 60% | ~35 | ~5 | 100 | –
